The NIST ThermoML archive (doi:10.1016/j.jct.2016.11.022)
± gives the expanded uncertainty stated by the source.

Tests used:
[1] = Molar enthalpy of transition or fusion; conditions: DSC
[2] = DTA

| Compound | Molar enthalpy of transition or fusion ([1]; Crystal) [kJ/mol] | Molar enthalpy of transition or fusion ([1]; Metastable crystal) [kJ/mol] | Normal melting temperature ([2]; Crystal) [°C] | Normal melting temperature ([2]; Metastable crystal) [°C] |
| --- | --- | --- | --- | --- |
| CC(N)=O [ethanamide] | 13.6 ± 1.4 | 11.6 ± 1.2 | 80.62 ± 1.1 | 70.14 ± 1.1 |
| CCCCCCCCCCCCCCCCCC(=O)O [octadecanoic acid] | 60.4 ± 6.1 |  | 69.47 ± 1.1 |  |
